# Laboratory results as given in patent US12533350B2, “Use of melanocortin-1 receptor agonist” (TANABE PHARMA CORPORATION, priority 2022, dated 2026).
# Legend:
# [1] = system: dermal fibroblasts from healthy donors; experiment: TGF-β-induced human fibroblast activation, healthy donors; type: cell-based; details: TGF-β 10 ng/mL, 24 hours
# Description: Full-thickness skin biopsies were obtained from clinically involved skin of patients affected by dcSSc, who were recruited from the Systemic sclerosis clinic within the Leeds Institute of Rheumatic and Musculoskeletal Medicine (UK). Control skin samples were from healthy donors. All patients with dcSSc and healthy donors provided written informed consent through the stratification for risk of progression in systemic sclerosis (STRIKE SSC), which had been approved by the North-East Research Ethic committee. Patients with SSc fulfilled the 2013 ACR/EULAR classification criteria for SSc and were classified as having dcSSc according to the LeRoy and Medsger criteria.
# Dermal fibroblasts were isolated from the skin biopsy samples of healthy donors and SSc patients. The skin biopsy samples were minced with a scalpel, placed in plastic culture dishes and covered with Dulbecco's Modified Eagle Medium (DMEM) with 4.5 g/L glucose (Thermo Fisher Scientific) supplemented with 20% fetal calf serum (FCS, Thermo Fisher Scientific), 1% penicillin and streptomycin (Merck), and 1 μg/ml of amphotericin (Thermo Fisher Scientific) and cultured at 37° C. in a humidified atmosphere of 5% CO2. Additional growth medium was added after 3 days with no amphotericin. After 7 days, culture medium was replaced with medium containing 10% FCS and subsequently replenished every 2 to 3 days. When a visible outgrowth of cells was obtained, the fibroblasts were passaged. Briefly, cells were incubated with PBS containing 0.1% EDTA for 5 min, and then detached with trypsin-EDTA solution (Merck), and cultured until 70-80% confluent in DMEM (1 g/L glucose) supplemented with 10% FCS and 1% penicillin and streptomycin. After a subsequent passage, primary cells were retrovirally immortalized using human telomerase reverse transcriptase. […]
# Total RNA was extracted using the Zymo quick RNA mini prep kit according to manufacturer's instructions (Zymo Research Corporation). […] Quantitative RT-PCR was performed in triplicates using SYBR Green RT-PCR Mastermix Kit (Thermo Fisher Scientific) and the ABI PRISM 7500 Fast Real Time PCR System (Applied Biosystems). […]
# FIGS. 5(A)-5(B) show the effect of Compound A on human fibroblast activation. Dermal fibroblasts from a healthy individual or an SSc patient were grown to confluence, and placed under starvation for 24 hours in a medium supplemented with 1% fetal bovine serum (A: mRNA expression of ACTA2 and COL1A1 in dermal fibroblasts of healthy individuals was measured by real-time PCR, and normalized for the GAPDH expression level. B: mRNA expression of ACTA2 and COL1A1 in dermal fibroblasts of SSc patients was measured for by real-time PCR, and normalized for the GAPDH expression level). Each bar represents the mean±SEM of the measured values from three wells. […]
# [2] = system: lung tissue gene expression in BLM-induced SSc model; details: 0.3 mg/kg
# Procedure: Total RNA of mouse lung tissue samples of PBSY_vehicle (control group without disease), BLM_vehicle (control group with disease), and BLM_Compound A (0.3 mg/kg) obtained from the BLM-induced SSc model (prophylactic evaluation) was used for analysis. The purity, concentration, and quality of the RNA samples were confirmed with NanoDrop 2000 (Thermo Fisher Scientific) and Agilent 2100 bioanalyser (Agilent Technologies). The RNA was then Cy3-labeled using a Low Input Quick Amp Labeling Kit, one-color (Agilent Technologies). Labeled cRNA samples were fragmented, and then hybridized with the Agilent SurePrint G3 Mouse GE v2 8×60 K Microarray (Agilent Technologies) using a Gene Expression Hybridization Kit (Agilent Technologies). After hybridization, the microarray was washed with the Gene Expression Wash Buffers Pack (Agilent Technologies) and imaged with a scanner to detect the signals. Signal intensities were evaluated with Agilent Feature Extraction software 12.0.
# Bioinformatics analysis in this study was performed with software, including GeneSpring GX 14.9.1, IPA 2019 autumn, and Microsoft Excel 2010. Genes that fluctuated ≥2 fold in BLM_vehicle group in comparison with those of the PBS_vehicle group and that satisfied a p-value <0.05 of the moderated t-test were defined as “differentially expressed genes (DEGs) in the disease model”. Among DEGs, the genes in the Compound A treatment group that fluctuated ≥1.5 fold in the opposite direction and met a p-value <0.05 of the moderated t-test in comparison with those of the BLM_vehicle group were defined as “DEGs by Compound A treatment”. DEGs were inputted into IPA and two types of calculations were performed: “Canonical pathways” and “Diseases or functions”. Here, “Canonical pathways” is described as “pathways” and “Diseases or functions” is described as “category”. The former contains a list for a series of gene interactions and the latter is a list related to diseases and biological functions. These datasets are registered in the IPA software. Initially, the Fisher's exact test was used to calculate the probability of overlap between two sets of genes. Thereafter, downstream effect analysis (DSEA) was used to calculate the activation z-score. DSEA is a technique for predicting the direction of change in expression patterns (either activation or inhibition) based on the expected causal effects between genes and functions. Based on the results of the DSEA analysis, information about the cell type (macrophages, neutrophils, mononuclear leukocytes, T-lymphocytes, B-lymphocytes, smooth muscle cells, endothelial cells, epithelial cells, and fibroblasts) that may be involved in the pathogenesis of SSc was extracted. Subsequently, information regarding biological functions and molecular signaling pathways, such as inflammation/immune abnormality, vascular dysfunction, and fibrosis, involved in the pathogenesis of SSc are extracted.
# DNA microarray analysis was carried out using lung samples from a BLM-induced SSc model (prevention model) to which 0.3 mg/kg of Compound A was administered. Bioinformatics analysis was carried out using IPA software, and two datasets were used to perform two types of calculations (“Canonical pathways” and “Diseases or functions”). Downstream effect analysis was used to calculate the activation z-score.
smiles,measurement,setting,value
"COC[C@H]1CN(C(=O)[C@]2(F)CN(C3CCCC3)C[C@H]2c2ccc(OC)cc2)C[C@@H]1c1ccc(C(F)(F)F)cc1N1CCC(C(=O)O)CC1 [Compound A, 1-{2-[(3S,4R)-1-{[(3R,4R)-1-cyclopentyl-3-fluoro-4-(4-methoxyphenyl)pyrrolidin-3-yl]carbonyl}-4-(methoxymethyl)pyrrolidin-3-yl]-5-(trifluoromethyl)phenyl}piperidine-4-carboxylic acid]",TGF-β-induced αSMA (ACTA2) mRNA elevation,"[1]; concentration-dependent, normalized to GAPDH",inhibited
same,TGF-β-induced COL1A1 mRNA expression,[1]; normalized to GAPDH,no effect
same,TGF-β-induced increase in αSMA mRNA expression,[1]; concentration of 1000 nmol/L,suppressed
same,gene expression fluctuation induced by BLM in IL-6 pathway genes (upstream and downstream),[2],reversed
same,IL-6 signaling pathway,[2]; IPA canonical pathways,affected
same,PPAR signaling pathway,[2]; IPA canonical pathways,affected
same,TREM1 signaling pathway,[2]; IPA canonical pathways,affected
same,oncostatin M signaling pathway,[2]; IPA canonical pathways,affected
same,category activation of antigen-presenting cells (activated by BLM),[2]; IPA downstream effect analysis,suppressed
same,category angiogenesis (activated by BLM),[2]; IPA downstream effect analysis,suppressed
same,category atherosclerosis (activated by BLM),[2]; IPA downstream effect analysis,suppressed
same,category inflammatory response (activated by BLM),[2]; IPA downstream effect analysis,suppressed
same,category vasculogenesis (activated by BLM),[2]; IPA downstream effect analysis,suppressed
same,category vaso-occlusion (activated by BLM),[2]; IPA downstream effect analysis,suppressed
same,"number of DEGs by Compound A treatment (≥1.5 fold in opposite direction, p<0.05 vs BLM_vehicle)",[2]; among 3337 DEGs in the disease model,1477
same,T-lymphocyte-related categories (IPA activation z-score),[2]; not changed by BLM,suppressed
same,endothelial cell-related categories (IPA activation z-score),[2]; not changed by BLM,suppressed
same,expression of the IL-6 gene among component genes of the IL-6 signaling pathway,[2]; remarkably upregulated by BLM,downregulated the most
